Paper PMC6424464, “Multiple functional neurosteroid binding sites on GABAA receptors” (PLoS Biology, 2019)

How the values were obtained:
[1] = molecular target: T1, α1β3 GABAA receptor (β3 subunit) (Homo sapiens, UniProt P14867+P28472); experiment: competition of KK123, KK200 and KK202 photolabeling on β[…]; [3H]muscimol binding enhancement; parameters: gene GABRB3; α1His-FLAG β3 receptor in HEK-293 cell membranes; with GABAA receptor α1 subunit (GABRA1)
T1 sequence (P28472 26-473): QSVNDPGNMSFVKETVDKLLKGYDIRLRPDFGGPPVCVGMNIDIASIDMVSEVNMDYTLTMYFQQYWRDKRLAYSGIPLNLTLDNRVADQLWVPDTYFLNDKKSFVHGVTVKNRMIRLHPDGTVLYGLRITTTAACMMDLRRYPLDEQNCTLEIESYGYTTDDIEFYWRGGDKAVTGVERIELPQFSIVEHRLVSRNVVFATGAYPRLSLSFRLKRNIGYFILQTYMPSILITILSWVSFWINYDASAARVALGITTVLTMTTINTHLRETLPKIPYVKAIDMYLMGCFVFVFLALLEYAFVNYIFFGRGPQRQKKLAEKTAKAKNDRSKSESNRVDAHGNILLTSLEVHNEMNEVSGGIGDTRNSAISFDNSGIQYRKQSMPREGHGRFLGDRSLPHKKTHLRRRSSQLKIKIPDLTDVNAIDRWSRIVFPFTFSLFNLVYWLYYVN
T1 sequence (P14867 28-456): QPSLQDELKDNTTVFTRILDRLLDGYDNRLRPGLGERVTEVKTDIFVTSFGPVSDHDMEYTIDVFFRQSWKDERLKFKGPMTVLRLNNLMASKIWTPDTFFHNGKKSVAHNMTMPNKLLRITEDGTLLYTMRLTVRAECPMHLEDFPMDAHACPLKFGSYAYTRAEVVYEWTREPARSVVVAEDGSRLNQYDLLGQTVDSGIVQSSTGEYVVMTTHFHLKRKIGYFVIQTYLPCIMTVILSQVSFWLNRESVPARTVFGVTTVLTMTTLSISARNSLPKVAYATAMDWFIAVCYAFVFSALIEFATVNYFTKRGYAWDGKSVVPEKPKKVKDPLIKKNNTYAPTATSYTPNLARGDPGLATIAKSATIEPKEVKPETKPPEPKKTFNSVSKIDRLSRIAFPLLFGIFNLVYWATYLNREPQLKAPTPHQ

[2] = molecular target: T2, GABAA receptor α1 subunit (Homo sapiens, UniProt P14867); experiment: competition of KK123 photolabeling at α1-Y415; [3H]muscimol binding enhancement; oocyte electrophysiology with site mutants; parameters: gene GABRA1; α1His-FLAG β3 receptor in HEK-293 cell membranes; with GABAA receptor β3 subunit (GABRB3)
T2 sequence (P14867 28-456): T1 sequence (P14867 28-456)
T2 sequence (P28472 26-473 partner): T1 sequence (P28472 26-473)

[3] = molecular target: T3, GABAA receptor β3 subunit (Homo sapiens, UniProt P28472); experiment: biochemical
T3 construct: gene GABRB3

[4] = molecular target: T2, GABAA receptor α1 subunit; experiment: biochemical; parameters: gene GABRA1
[5] = molecular target: T4, GABAA receptor β3 subunit (Homo sapiens, UniProt P14867+P28472); experiment: photoaffinity labeling with middle-down MS, competed by allopregnanolone; EC50 from [3H]muscimol binding enhancement (whole α[…]β[…] receptor)
T4 construct: gene GABRB3; α1His-FLAG β3 receptor in HEK-293 cell membranes; adduct in TM3 peptide 280-313; with GABAA receptor α1 subunit (GABRA1)
T4 sequence (P28472 26-473): T1 sequence (P28472 26-473)
T4 sequence (P14867 28-456): T1 sequence (P14867 28-456)

[6] = molecular target: T2, GABAA receptor α1 subunit; experiment: photoaffinity labeling ([…]) with middle-down MS; EC50 from [3H]muscimol binding enhancement (whole α[…]β[…] receptor); parameters: gene GABRA1; α1His-FLAG β3 receptor in HEK-293 cell membranes; adduct in TM4 peptide 398-423; with GABAA receptor β3 subunit (GABRB3)
[7] = molecular target: T5, GABAA receptor β3 subunit (Homo sapiens, UniProt P28472); experiment: photoaffinity labeling with middle-down MS, competed by allopregnanolone; EC50 from [3H]muscimol binding enhancement (whole α[…]β[…] receptor)
T5 construct: gene GABRB3; α1His-FLAG β3 receptor in HEK-293 cell membranes; adduct in TM3 peptide 278-313; with GABAA receptor α1 subunit (GABRA1)
T5 sequence (P28472 26-473): T1 sequence (P28472 26-473)
T5 sequence (P14867 28-456 partner): T1 sequence (P14867 28-456)

[8] = molecular target: T1, α1β3 GABAA receptor (β3 subunit); experiment: two-electrode voltage clamp, potentiation and direct activation; format: cell-based; parameters: gene GABRB3; α1β3 receptors expressed in X. laevis oocytes; with GABAA receptor α1 subunit (GABRA1)

CC(=O)[C@H]1CC[C@H]2[C@@H]3CC[C@H]4C[C@H](O)CC[C@]4(C)[C@H]3CC[C@]12C [AlloP, 3α-hydroxy-5α-pregnan-20-one]
EC50 [1]: 3.9 ± 5.6 µM | EC50 [2]: 3.9 ± 5.6 µM

C#CCCO[C@H]1C[C@]2(C)C3CC[C@@]4(C)C(CC[C@@H]4OC)C3CC3(N=N3)C2C[C@@H]1O (some centres unmarked) [KK123]
EC50 [3]: 1.6 ± 0.2 µM | EC50 [4]: 1.6 ± 0.2 µM

C[C@]12CC[C@@H](O)CC1CCC1C2CC[C@@]2(C)C1CC[C@@H]2OCc1ccc(C2(C(F)(F)F)N=N2)cc1 (some centres unmarked) [KK200]
EC50 [5]: 0.54 ± 0.18 µM | EC50 [6]: 0.54 ± 0.18 µM

C#CCO[C@H]1CCC2C3CCC4C[C@H](OCc5ccc(C6(C(F)(F)F)N=N6)cc5)CC[C@]4(C)C3CC[C@@]21C (some centres unmarked) [KK202]
EC50 [7]: 1.1 ± 0.27 µM

CC(C)c1cccc(C(C)C)c1O [propofol]
two-electrode voltage clamp, potentiation and direct activation [8]: Propofol action was not different between the mutant and wild-type receptors, indicating a selective effect on neurosteroid action
